The target in this assay is T1, OX2R (Homo sapiens, UniProt O43614).
T1 construct: expressed in transfected cells; host or cells: CHO (Chinese hamster ovary) cells constitutively expressing the OX2R gene and NFAT-luciferase (CHOOX2R)
T1 sequence (O43614 1-444): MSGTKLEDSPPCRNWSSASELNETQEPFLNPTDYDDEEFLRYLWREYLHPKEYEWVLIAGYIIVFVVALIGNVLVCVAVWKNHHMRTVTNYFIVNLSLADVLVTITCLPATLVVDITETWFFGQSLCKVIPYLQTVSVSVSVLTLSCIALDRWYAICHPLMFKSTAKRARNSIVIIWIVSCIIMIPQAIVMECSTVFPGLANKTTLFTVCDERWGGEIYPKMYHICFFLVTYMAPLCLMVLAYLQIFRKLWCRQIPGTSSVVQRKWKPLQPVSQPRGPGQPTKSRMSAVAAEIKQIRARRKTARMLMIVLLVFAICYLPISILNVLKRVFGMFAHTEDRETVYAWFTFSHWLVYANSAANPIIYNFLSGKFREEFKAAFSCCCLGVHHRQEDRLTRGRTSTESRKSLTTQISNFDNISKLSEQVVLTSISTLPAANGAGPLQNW
Briefly: Evaluation of agonist activity against OX2R (CHOOX2R cells, Fura2AM fluorescence, FDSS3000). The class given is cell-based. Here is the method:
Evaluation of Agonist Activity Against OX2R
NFAT-luciferase gene and OX2R gene were each constitutively expressed in CHO cell, which is a cell line derived from Chinese hamster ovary to establish a cell line (CHOOX2R). The cells thereof were sown on a 96 well plate at 10000 cells/well, and cultured in a 5% FBS-added DMEM medium for 48 hr. […] After washing, HEPES buffer (75 μL) was added, a test compound solution (25 μL) was added, and changes in the fluorescence intensity were measured by FDSS3000 (Hamamatsu Photonics K.K.). The test compound was dissolved in DMSO (final concentration of DMSO was 1%), and diluted with HEPES buffer to a final concentration of 0.1 μM, 1.0 μM or 10 μM.

Where [1] appears, read: test compound 0.1 μM; relative to orexin-A as full agonist (100%); CHOOX2R cells.
[2] abbreviates: test compound 1.0 μM; relative to orexin-A as full agonist (100%); CHOOX2R cells.
Where [3] appears, read: test compound 10 μM; relative to orexin-A as full agonist (100%); CHOOX2R cells.
Where [4] appears, read: test compound 0.1 μM; CHOOX2R cells; relative to orexin-A as full agonist (100%).
Where [5] appears, read: test compound 1.0 μM; CHOOX2R cells; relative to orexin-A as full agonist (100%).
[6] abbreviates: test compound 10 μM; CHOOX2R cells; relative to orexin-A as full agonist (100%).
Setting [7] is: OX2R agonist activity; CHOOX2R cells.
Where [8] appears, read: conversion with orexin-A as full agonist (maximum agonist activity 100%).

Bounds are passed on as bounds.

Data on eight molecules can be found in US9815787B2, “Sulfonamide derivative or pharmaceutically acceptable acid addition salt thereof” (UNIVERSITY OF TSUKUBA, priority 2013, dated 2017).

`COc1cccc(C(=O)NCCNc2cccc(NS(=O)(=O)c3cc(-c4ccccc4O)ccc3OC)c2)c1` [Example 22, N-(2-((3-(2′-hydroxy-4-methoxy-[1,1′-biphenyl]-3-ylsulfonamide)phenyl)amino)ethyl)-3-methoxybenzamide]: under setting [1], the “Response (0.1 μM (%))” value is below 5%. Besides, the “Response (1.0 μM (%))” value under setting [2] stood at 15%. Under setting [3], the “Response (10 μM (%))” value was found to be 21%.
For `COc1cc(C)c(-c2cccc(C(=O)N(C)C)c2)cc1S(=O)(=O)Nc1cccc(NCCNC(=O)c2cccc(F)c2)c1` [Example 102, 5′-(N-(3-((2-(3-fluorobenzamido)ethyl)amino)phenyl)sulfamoyl)-4′-methoxy-N,N,2′-trimethyl-[1,1′-biphenyl]-3-carboxamide], in that order: 61%, 83% and 85%.
`COc1ccc(-c2cccc(C(=O)N(C)C)c2)cc1S(=O)(=O)Nc1cccc(NCCNC(=O)c2occc2C)c1` [Example 68, N-(2-((3-(3′-(dimethylcarbamoyl)-4-methoxy-[1,1′-biphenyl]-3-ylsulfonamido)phenyl)amino)ethyl)-3-methylfuran-2-carboxamide]: the “Response (0.1 μM (%))” value under setting [4] is listed as 42%. Further, under setting [5], the “Response (1.0 μM (%))” value was 86%. The “Response (10 μM (%))” value under setting [6] was found to be 74%.
Under setting [7], `COc1cccc(C(=O)NCCNc2cccc(NS(=O)(=O)c3cc(-c4cccc(Cl)c4)ccc3OC)c2)c1` [Example 29, N-(2-((3-(3′-chloro-4-methoxy-[1,1′-biphenyl]-3-ylsulfonamide)phenyl)amino)ethyl)-3-methoxybenzamide] showed an EC50 of 800 nM. The same molecule gave an Emax under setting [8] of 54%. Further, under setting [1], the “Response (0.1 μM (%))” value is given as below 5%. For the same molecule, under setting [2], the “Response (1.0 μM (%))” value worked out at 16%. Further, the “Response (10 μM (%))” value under setting [3] is 73%.
As for `COc1ccc(-c2cccc(C(=O)N(C)C)c2)cc1S(=O)(=O)Nc1cccc(NCCNC(=O)c2cncc(Cl)c2)c1` [Example 58, 5-chloro-N-(2-((3-(3′-(dimethylcarbamoyl)-4-methoxy-[1,1′-biphenyl]-3-ylsulfonamido)phenyl)amino)ethyl)nicotinamide], under setting [4], the “Response (0.1 μM (%))” value is below 5%. For the same molecule, the “Response (1.0 μM (%))” value under setting [5] is given as 130%. Under setting [6], the “Response (10 μM (%))” value turned out to be 119%.
Regarding `COc1ccccc1C(=O)NCCNc1cccc(NS(=O)(=O)c2cc(-c3cccnc3)ccc2OC)c1` [Example 96, 2-methoxy-N-(2-((3-(2-methoxy-5-(pyridin-3-yl)phenylsulfonamido)phenyl)amino)ethyl)benzamide], under setting [7], the EC50 was 268 nM. The maximum response (Emax) under setting [8] is 88%. For the same molecule, under setting [4], the “Response (0.1 μM (%))” value is below 5%. For the same molecule, the “Response (1.0 μM (%))” value under setting [5] is 61%. Further, the “Response (10 μM (%))” value under setting [6] was determined as 88%.
Under setting [7], `COc1ccc(-c2cccc(C(=O)N(C)C)c2)cc1S(=O)(=O)Nc1cccc(NCCNC(=O)c2ccccc2Cl)c1` [Example 42, 3′-(N-(3-((2-(2-chlorobenzamido)ethyl)amino)phenyl)sulfamoyl)-4′-methoxy-N,N-dimethyl-[1,1′-biphenyl]-3-carboxamide] registered an EC50 of 31 nM. Under setting [8], this molecule showed an Emax of 90%. Also, the “Response (0.1 μM (%))” value under setting [4] is given as 65%. Moreover, the “Response (1.0 μM (%))” value under setting [5] came out at 103%. Also, the “Response (10 μM (%))” value under setting [6] is given as 114%.
Consider `COc1cc(C)c(-c2cccc(C(=O)N(C)C)c2)cc1S(=O)(=O)Nc1cccc(NCCNC(=O)c2ccccc2Cl)c1` [Example 104, 5′-(N-(3-((2-(2-chlorobenzamido)ethyl)amino)phenyl)sulfamoyl)-4′-methoxy-N,N,2′-trimethyl-[1,1′-biphenyl]-3-carboxamide], for which the “Response (0.1 μM (%))” value under setting [1] was 67%. The “Response (1.0 μM (%))” value under setting [2] was 88%. For the same molecule, the “Response (10 μM (%))” value under setting [3] is on record as 86%.
